Measured values as given in patent US12398178B2, “Collections of peptides, peptide agents, and methods of use thereof” (Parabilis Medicines, Inc., priority 2018, dated 2025).
Starred links: 1 amine or outer side, 2 acyl side, 3 side chain; linkers in the order of their positions; H or OH if unused. Positions of bridges follow the written chain, without caps; N, C: chain ends. Residues, ends and D or L forms follow the SMILES beside them. Phenylene(1,4-NHCOCH2)2 = O=C(C[*:1])Nc1ccc(NC(=O)C[*:2])cc1; X5 = CN(C(=O)C[*:1])c1ccc(N(C)C(=O)C[*:2])cc1; X7 = O=C(C[*:1])Nc1cc(F)c(NC(=O)C[*:2])cc1F

Assay: Measurement of LogD (CHI logD by HPLC)
Format: physicochemical
Conditions: CHI log D, 50 mM ammonium acetate pH 7.4 / acetonitrile gradient, C-18 column, 25° C.
Description: Measurement of LogD: LogD values were measured on a Agilent 1260 HPLC with UV detector (254, 220 nm), using a Gemini NX C-18 50×3 mm column (Phenomenex) with a 6-minute 0-100% mobile phase gradient of A) 50 mM ammonium acetate pH 7.4 and B) Acetonitrile at 25° C. with a flow rate of 1 mL/min and injection volume of 3-5 uL.

Compound	chromatographic logD
CC(C)C[C@@H]1NC(=O)[C@H](C)NC(=O)[C@H](C)NC(=O)[C@H](Cc2c[nH]c3ccccc23)NC(=O)[C@H](CCC(=O)O)NC(=O)[C@@H](NC(=O)[C@H](CCCNC(=N)N)NC(=O)[C@H](Cc2c[nH]cn2)NC(=O)[C@@H](NC(=O)[C@H](C)NC(=O)[C@@H]2CCCN2C(=O)[C@H](CC(=O)O)NC(=O)[C@H](C)N)[C@@H](C)O)CSCC(=O)Nc2ccc(cc2)NC(=O)CSC[C@@H](C(=O)N[C@@H](CCC(=O)O)C(=O)N[C@@H](CC(C)C)C(=O)N[C@H](C(N)=O)C(C)C)NC(=O)[C@H](Cc2c[nH]cn2)NC1=O [Compound 1]	0.57
CC[C@H](C)[C@@H]1NC(=O)[C@H](CC(C)C)NC(=O)[C@H](C)NC(=O)[C@H](C)NC(=O)[C@H](Cc2c[nH]cn2)NC(=O)[C@H](CCC(=O)O)NC(=O)[C@@H](NC(=O)[C@H](C)NC(=O)[C@H](Cc2c[nH]c3ccccc23)NC(=O)[C@H](CC(C)C)NC(=O)[C@H](C)NC(=O)[C@@H]2CCCN2C(=O)[C@H](CC(=O)O)NC(=O)[C@H](C)N)CSCC(=O)Nc2ccc(cc2)NC(=O)CSC[C@@H](C(=O)N[C@@H](CCC(=O)O)C(=O)N[C@H](C(=O)N[C@@H](CCC(N)=O)C(N)=O)[C@@H](C)O)NC1=O [Compound 2] (H-ADPALWACEHAALICETQ-NH2; linker 8-15 via Phenylene(1,4-NHCOCH2)2; N-terminus and C-terminus assumed)	0.62
CC[C@H](C)[C@@H]1NC(=O)[C@@H](NC(=O)[C@H](CCC(=O)O)NC(=O)[C@H](CC(=O)O)NC(=O)[C@H](CCC(=O)O)NC(=O)[C@H](C)NC(=O)[C@@H]2CCCN2C(=O)[C@H](CC(=O)O)NC(=O)[C@H](C)N)CSCC(=O)Nc2ccc(cc2)NC(=O)CSC[C@@H](C(=O)N[C@@H](CCCNC(=N)N)C(=O)N[C@@H](Cc2c[nH]c3ccccc23)C(=O)N[C@@H](Cc2c[nH]c3ccccc23)C(N)=O)NC(=O)[C@H](CCSC)NC(=O)[C@H](Cc2c[nH]cn2)NC(=O)[C@H](C)NC(=O)[C@H](C)NC(=O)[C@H](CC(C)C)NC1=O [Compound 8] (H-ADPAEDECILAAHMCRWW-NH2; linker 8-15 via Phenylene(1,4-NHCOCH2)2; N-terminus and C-terminus assumed)	0.92
CC[C@H](C)[C@@H]1NC(=O)[C@@H](NC(=O)[C@H](CC(=O)O)NC(=O)[C@H](CCC(=O)O)NC(=O)[C@H](CC(=O)O)NC(=O)[C@H](C)NC(=O)[C@@H]2CCCN2C(=O)[C@H](CC(=O)O)NC(=O)[C@H](C)N)CSCC(=O)Nc2ccc(cc2)NC(=O)CSC[C@@H](C(=O)N[C@@H](CCC(N)=O)C(=O)N[C@@H](Cc2c[nH]c3ccccc23)C(=O)N[C@@H](CC(=O)O)C(N)=O)NC(=O)[C@H]([C@@H](C)CC)NC(=O)[C@H](Cc2c[nH]cn2)NC(=O)[C@H](C)NC(=O)[C@H](C)NC(=O)[C@H](CC(C)C)NC1=O [Compound 9] (H-ADPADEDCILAAHICQWD-NH2; linker 8-15 via Phenylene(1,4-NHCOCH2)2; N-terminus and C-terminus assumed)	0.29
CC[C@H](C)[C@@H]1NC(=O)[C@H](CC(C)C)NC(=O)[C@H](C)NC(=O)[C@H](C)NC(=O)[C@H](Cc2c[nH]cn2)NC(=O)[C@H](CCC(=O)O)NC(=O)[C@@H](NC(=O)[C@H](Cc2c[nH]cn2)NC(=O)[C@H](Cc2c[nH]c3ccccc23)NC(=O)[C@H](CCC(N)=O)NC(=O)[C@H](C)NC(=O)[C@@H]2CCCN2C(=O)[C@H](CC(=O)O)NC(=O)[C@H](C)N)CSCC(=O)Nc2ccc(cc2)NC(=O)CSC[C@@H](C(=O)N[C@@H](CCC(=O)O)C(=O)N[C@@H](CC(C)C)C(=O)N[C@@H](CC(=O)O)C(N)=O)NC1=O [Compound 10] (H-ADPAQWHCEHAALICELD-NH2; linker 8-15 via Phenylene(1,4-NHCOCH2)2; N-terminus and C-terminus assumed)	0.39
CC(C)C[C@@H]1NC(=O)[C@H](C)NC(=O)[C@H](C)NC(=O)[C@H](Cc2c[nH]cn2)NC(=O)[C@H](CCC(=O)O)NC(=O)[C@@H](NC(=O)[C@H](CCC(N)=O)NC(=O)[C@H](Cc2c[nH]c3ccccc23)NC(=O)[C@@H]2CCCN2C(=O)[C@H](C)NC(=O)[C@@H]2CCCN2C(=O)[C@H](CC(=O)O)NC(=O)[C@H](C)N)CSCC(=O)Nc2ccc(cc2)NC(=O)CSC[C@@H](C(=O)N[C@@H](CCC(=O)O)C(=O)N[C@@H](CC(C)C)C(=O)N[C@@H](CCC(=O)O)C(N)=O)NC(=O)[C@H](CC(C)C)NC1=O [Compound 11] (H-ADPAPWQCEHAALLCELE-NH2; linker 8-15 via Phenylene(1,4-NHCOCH2)2; N-terminus and C-terminus assumed)	0.47
CC[C@H](C)[C@@H]1NC(=O)[C@H](CC(C)C)NC(=O)[C@H](C)NC(=O)[C@H](C)NC(=O)[C@H](Cc2c[nH]cn2)NC(=O)[C@H](CCC(=O)O)NC(=O)[C@@H](NC(=O)[C@H](CCC(=O)O)NC(=O)[C@H](Cc2c[nH]c3ccccc23)NC(=O)[C@H](CC(=O)O)NC(=O)[C@H](C)NC(=O)[C@@H]2CCCN2C(=O)[C@H](CC(=O)O)NC(=O)[C@H](C)N)CSCC(=O)Nc2ccc(cc2)NC(=O)CSC[C@@H](C(=O)N[C@@H](CC(=O)O)C(=O)N[C@@H](C)C(=O)N[C@@H](CCSC)C(N)=O)NC1=O [Compound 12] (H-ADPADWECEHAALICDAM-NH2; linker 8-15 via Phenylene(1,4-NHCOCH2)2; N-terminus and C-terminus assumed)	0.39
CC[C@H](C)[C@@H]1NC(=O)[C@H](CC(C)C)NC(=O)[C@H](C)NC(=O)[C@H](C)NC(=O)[C@H](Cc2c[nH]cn2)NC(=O)[C@H](CCC(=O)O)NC(=O)[C@@H](NC(=O)[C@H](CC(C)C)NC(=O)[C@H](Cc2c[nH]c3ccccc23)NC(=O)[C@H](Cc2ccc(O)cc2)NC(=O)[C@H](C)NC(=O)[C@@H]2CCCN2C(=O)[C@H](CC(=O)O)NC(=O)[C@H](C)N)CSCC(=O)Nc2ccc(cc2)NC(=O)CSC[C@@H](C(=O)N[C@@H](CCC(=O)O)C(=O)N[C@H](C(=O)N[C@@H](CCC(=O)O)C(N)=O)C(C)C)NC1=O [Compound 13] (H-ADPAYWLCEHAALICEVE-NH2; linker 8-15 via Phenylene(1,4-NHCOCH2)2; N-terminus and C-terminus assumed)	0.8
CC[C@H](C)[C@H](NC(=O)[C@H](CCC(=O)O)NC(=O)[C@@H]1CSCC(=O)Nc2ccc(cc2)NC(=O)CSC[C@H](NC(=O)[C@@H]2CCCN2C(=O)[C@H](Cc2c[nH]c3ccccc23)NC(=O)[C@H](CCC(N)=O)NC(=O)[C@H](C)NC(=O)[C@@H]2CCCN2C(=O)[C@H](CC(=O)O)NC(=O)[C@H](C)N)C(=O)N[C@@H](CCC(=O)O)C(=O)N[C@@H](Cc2c[nH]cn2)C(=O)N[C@@H](C)C(=O)N[C@@H](C)C(=O)N[C@@H](CC(C)C)C(=O)N[C@@H](CC(C)C)C(=O)N1)C(=O)N[C@@H](CCC(=O)O)C(N)=O [Compound 14] (H-ADPAQWPCEHAALLCEIE-NH2; linker 8-15 via Phenylene(1,4-NHCOCH2)2; N-terminus and C-terminus assumed)	0.47
CC(C)C[C@@H]1NC(=O)[C@H](C)NC(=O)[C@H](C)NC(=O)[C@H](Cc2c[nH]c3ccccc23)NC(=O)[C@H](CCC(=O)O)NC(=O)[C@@H](NC(=O)[C@H](CCCNC(=N)N)NC(=O)[C@H](Cc2c[nH]cn2)NC(=O)[C@@H](NC(=O)[C@H](C)NC(=O)[C@@H]2CCCN2C(=O)[C@H](CC(=O)O)NC(=O)[C@H](C)N)[C@@H](C)O)CSCC(=O)Nc2cc(Cl)c(cc2Cl)NC(=O)CSC[C@@H](C(=O)N[C@@H](CCC(=O)O)C(=O)N[C@@H](CC(C)C)C(=O)N[C@H](C(N)=O)C(C)C)NC(=O)[C@H](Cc2c[nH]cn2)NC1=O [Compound 33]	0.68
COc1cc2c(OC)cc1NC(=O)CSC[C@@H](C(=O)N[C@@H](CCC(=O)O)C(=O)N[C@@H](CC(C)C)C(=O)N[C@H](C(N)=O)C(C)C)NC(=O)[C@H](Cc1c[nH]cn1)NC(=O)[C@H](CC(C)C)NC(=O)[C@H](C)NC(=O)[C@H](C)NC(=O)[C@H](Cc1c[nH]c3ccccc13)NC(=O)[C@H](CCC(=O)O)NC(=O)[C@@H](NC(=O)[C@H](CCCNC(=N)N)NC(=O)[C@H](Cc1c[nH]cn1)NC(=O)[C@@H](NC(=O)[C@H](C)NC(=O)[C@@H]1CCCN1C(=O)[C@H](CC(=O)O)NC(=O)[C@H](C)N)[C@@H](C)O)CSCC(=O)N2 [Compound 34]	0.63
CC[C@H](C)[C@@H]1NC(=O)[C@H](CC(C)C)NC(=O)[C@H](C)NC(=O)[C@H](C)NC(=O)[C@H](Cc2c[nH]cn2)NC(=O)[C@H](CCC(=O)O)NC(=O)[C@@H](NC(=O)[C@H](C)NC(=O)[C@H](Cc2c[nH]c3ccccc23)NC(=O)[C@H](CC(C)C)NC(=O)[C@H](C)NC(=O)[C@@H]2CCCN2C(=O)[C@H](CC(=O)O)NC(=O)[C@H](C)N)CSCC(=O)N(C)c2ccc(cc2)N(C)C(=O)CSC[C@@H](C(=O)N[C@@H](CCC(=O)O)C(=O)N[C@H](C(=O)N[C@@H](CCC(N)=O)C(N)=O)[C@@H](C)O)NC1=O [Compound 40] (H-ADPALWACEHAALICETQ-NH2; linker 8-15 via X5; N-terminus and C-terminus assumed)	0.73
CC[C@H](C)[C@@H]1NC(=O)[C@H](CC(C)C)NC(=O)[C@H](C)NC(=O)[C@H](C)NC(=O)[C@H](Cc2c[nH]cn2)NC(=O)[C@H](CCC(=O)O)NC(=O)[C@@H](NC(=O)[C@H](C)NC(=O)[C@H](Cc2c[nH]c3ccccc23)NC(=O)[C@H](CC(C)C)NC(=O)[C@H](C)NC(=O)[C@@H]2CCCN2C(=O)[C@H](CC(=O)O)NC(=O)[C@H](C)N)CSCC(=O)Nc2cc(F)c(cc2F)NC(=O)CSC[C@@H](C(=O)N[C@@H](CCC(=O)O)C(=O)N[C@H](C(=O)N[C@@H](CCC(N)=O)C(N)=O)[C@@H](C)O)NC1=O [Compound 41] (H-ADPALWACEHAALICETQ-NH2; linker 8-15 via X7; N-terminus and C-terminus assumed)	0.73
